# Assay: gradient 5% acetonitrile 3 min, to 50% in 2 min, to 85% in 15 min, held 3 min, 100 µL/min
# Conditions: column: Zorbax Extend-C18 2.1 x 50 mm; eluents: water / acetonitrile, 0.1% formic acid
# In short: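 Data were gathered over 3 months by HPLC coupled to a quadrupole time-of-flight mass spectrometer, operated in positive and negative ionization mode. Mixtures of ~100 pure standards ran on a Zorbax Extend-C18 column (2.1 × 50 mm, 1.8 μm) at 100 μL/min, with water and acetonitrile each containing 0.1% formic acid and dead and dwell volumes of 40 μL and 900 μL. Retention time was read from adduct peaks picked by computer and checked manually.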
row,RP-LC retention time [s],Structure (SMILES)
1,953,CCCCN(C)C(=O)Cn1c(=O)c(S(=O)(=O)c2ccccc2)cc2cc(C)ccc21
2,741,Cn1c(=O)c2nc(S(=O)(=O)CCC(=O)Nc3ccc(Cl)cc3)n(C)c2n(C)c1=O
3,750,O=C(CSc1ncnc2c1cnn2-c1ccc(Cl)cc1)Nc1ccc(F)cc1F
4,941,COCCOC(=O)c1c(C)oc2ccc(OC(=O)C3CC3)cc12
5,1090,COc1cccc(-c2nnc(Cc3nc(-c4cccc(Cl)c4)no3)o2)c1
6,664,Cc1cc(F)cc2c(=O)c3c([nH]c12)CCN(CC(=O)Nc1ccc(F)c(Cl)c1)C3
7,825,O=C(CN1CCC2(CC1)N=C(c1ccc(Br)cc1)C(=O)N2)Nc1ccccc1
8,831,CCOc1cc(C(=O)Nc2cc(-c3cn4cccnc4n3)ccc2OC)cc(OCC)c1OCC
9,940,CCOC(=O)c1nc(Nc2cccc(SC)c2)c2ccccc2n1
10,895,Cc1nc(-c2csc(S(=O)(=O)N3CCC(C(=O)NCc4ccccc4Cl)CC3)c2)no1
11,706,Cc1noc(C2CN(C(=O)NCc3cccc(F)c3)CC23CCOCC3)n1 (stereo unspecified)
12,983,CCn1cc(-c2nc(C)c(C(=O)Nc3cccc(OC)c3)s2)c2cccnc21
13,968,CCCCn1c(=O)c2ccccc2n(Cc2nc(-c3ccc(OCC)c(OC)c3)no2)c1=O
14,1070,Clc1cccc(-c2noc(Cc3nnc(-c4ccccc4)o3)n2)c1
15,784,Cc1ccccc1CNC(=O)C1CCCN(c2nnc(C)c3c(C)n(-c4ccc(Cl)cc4)nc23)C1 (stereo unspecified)
16,667,Cc1csc2nc(-c3cccc(NC(=O)c4ccccc4[N+](=O)[O-])c3)cn12

# The remaining lines, values behind:
row,Structure (SMILES),RP-LC retention time [s]
1,O=C(Cn1c(=O)cc(-c2nc(C3CC3)no2)c2ccccc21)Nc1ccc(F)cc1,616
2,CCc1nc2cc(-c3noc(Cc4cccc(Cl)c4)n3)ccc2o1,1170
3,CCCc1noc(CN2N=C(C(=O)N3CCC(C)CC3)S(=O)(=O)c3ccc(C)cc32)n1,1010
4,COc1cc(OC)cc(C(=O)N2CCCC2c2nc(-c3cccc(C(F)(F)F)c3)no2)c1 (stereo unspecified),1120
5,Cc1ccc(Nc2c(-c3ccc(O)cc3)nc3ccc(Cl)cn23)cc1,696
6,CCNC(=O)Nc1ccc2c(c1)CN(S(=O)(=O)c1cnn(CC)c1)CCO2,704
7,CCN(Cc1ccncc1)C(=O)C(CO)c1ccccc1 (stereo unspecified),619
8,Cc1cc(C(=O)Nc2ccc3nc(N4CCN(C)CC4)sc3c2)on1,544
9,O=C(COc1cccc(Cl)c1)N1CCN(c2nc(CN3CCCCC3)cs2)CC1,681
10,O=C(Cc1ccccc1Cl)N1CCc2nc(-c3ccc(Cl)cc3)ncc2C1,1140
11,COCCNC(=O)C1CCN(C(=O)c2cccn2-c2cccnc2)CC1,578
12,COc1ccc(-c2nc(N(CC(C)C)CC(C)C)c3ccccc3n2)cc1,1020
13,CC1(C(=O)NCc2ccc(F)cc2)Cn2cnc(C(=O)NC3CCCCC3)c2C(=O)N1C1CC1 (stereo unspecified),765
14,CC(C)n1c(N2CCN(C(=O)Cc3cccs3)CC2)cc(=O)n(C(C)C)c1=O,829
15,Cc1cc(C(=O)NC2CC2)c2cc(Br)ccc2n1,664
16,O=C(Cc1ccc(Cl)cc1)N1CC(n2cnnc2C2CC2)C1,649
17,CCCCN1CCN(c2ncccc2-c2nnc(-c3ccc(Cl)cc3)o2)CC1,743
18,COc1ccc(NS(=O)(=O)c2cc3c(s2)CCN(C(=O)C2CC2)C3)cc1,774
19,Cc1ccc(CNC(=O)c2ccc(-c3ccsc3)nc2)o1,824
20,Cc1ccc(-n2nc(N3CCCN(S(=O)(=O)c4ccc(Cl)cc4)CC3)ccc2=O)cc1,935

# Source: the METLIN SMRT retention time set (Domingo-Almenara et al. 2019)
